Laboratory results taken from patent publication US12617779B2, “Self degradation-type CDK9 inhibitor prodrug and liposome encapsulating same” (Sumitomo Pharma Co., Ltd., priority 2021, dated 2026).

Assay: Evaluation of conversion rate to active form in buffer solution (Experimental Example 1)
Assay type: physicochemical
Conditions: for Production rate of Alvocidib / Residual rate / Alvocidib amount produced, after subtracting the 28.2% Alvocidib of the sample (Table 36-2): 37° C.; for Production rate of Alvocidib / Residual rate: 25 umol/L in buffer solution; for Stability in buffer solution at pH 5: pH 5, 37° C., up to 2 or 3 hours; for Conversion to Alvocidib at pH 7.4: pH 7.4, 37° C., up to 3 hours
How it was run: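 Conversion to Alvocidib and loss of parent were followed by HPLC over 3 h (samples at 0, 0.5, 1, 2, 3 h). Incubations used 25 umol/L compound at 37 °C across pH 5.0–7.4, in 50 mM citrate below pH 6.0 and 50 mM phosphate from pH 6.0 upward.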

CN1CC[C@H](c2c(OC(=O)N(C)CC3CCCCN3)cc(O)c3c(=O)cc(-c4ccccc4Cl)oc23)[C@H](O)C1 (stereo partly drawn) [Example 8, 2-(2-chlorophenyl)-5-hydroxy-8-[(3S,4R)-3-hydroxy-1-methylpiperidin-4-yl]-4-oxo-4H-1-benzopyran-7-yl methyl[(piperidin-2-yl)methyl]carbamate]
Production rate of Alvocidib (pH5.0, 0 hr): 0.7% | Residual rate (pH5.0, 0 hr): 95.4% | Stability in buffer solution at pH 5: stable | Production rate of Alvocidib (pH5.0, 0.5 hr): 1.2% | Residual rate (pH5.0, 0.5 hr): 95.1% | Production rate of Alvocidib (pH5.0, 1 hr): 1.6% | Residual rate (pH5.0, 1 hr): 95.0% | Production rate of Alvocidib (pH5.0, 2 hr): 2.0% | Residual rate (pH5.0, 2 hr): 94.7% | Production rate of Alvocidib (pH5.5, 0 hr): 0.5% | Residual rate (pH5.5, 0 hr): 95.9% | Production rate of Alvocidib (pH5.5, 0.5 hr): 1.6% | Residual rate (pH5.5, 0.5 hr): 95.0% | Production rate of Alvocidib (pH5.5, 1 hr): 2.5% | Residual rate (pH5.5, 1 hr): 94.3% | Production rate of Alvocidib (pH5.5, 2 hr): 3.5% | Residual rate (pH5.5, 2 hr): 93.4% | Production rate of Alvocidib (pH6.0, 0 hr): 0.8% | Residual rate (pH6.0, 0 hr): 95.7% | Production rate of Alvocidib (pH6.0, 0.5 hr): 4.4% | Residual rate (pH6.0, 0.5 hr): 92.1% | Production rate of Alvocidib (pH6.0, 1 hr): 7.3% | Residual rate (pH6.0, 1 hr): 89.4% | Production rate of Alvocidib (pH6.0, 2 hr): 10.3% | Residual rate (pH6.0, 2 hr): 86.5% | Production rate of Alvocidib (pH6.5, 0 hr): 1.5% | Residual rate (pH6.5, 0 hr): 95.0% | Production rate of Alvocidib (pH6.5, 0.5 hr): 11.2% | Residual rate (pH6.5, 0.5 hr): 85.3% | Production rate of Alvocidib (pH6.5, 1 hr): 18.9% | Residual rate (pH6.5, 1 hr): 77.7% | Production rate of Alvocidib (pH6.5, 2 hr): 25.6% | Residual rate (pH6.5, 2 hr): 71.2% | Production rate of Alvocidib (pH7.0, 0 hr): 4.0% | Residual rate (pH7.0, 0 hr): 92.5% | Production rate of Alvocidib (pH7.0, 0.5 hr): 27.3% | Residual rate (pH7.0, 0.5 hr): 69.3% | Production rate of Alvocidib (pH7.0, 1 hr): 40.0% | Residual rate (pH7.0, 1 hr): 56.7% | Production rate of Alvocidib (pH7.0, 2 hr): 48.2% | Residual rate (pH7.0, 2 hr): 49.0% | Production rate of Alvocidib (pH7.4, 0 hr): 9.7% | Residual rate (pH7.4, 0 hr): 86.7% | Conversion to Alvocidib at pH 7.4: rapidly converted to Alvocidib | Production rate of Alvocidib (pH7.4, 0.5 hr): 45.1% | Residual rate (pH7.4, 0.5 hr): 51.4% | Production rate of Alvocidib (pH7.4, 1 hr): 55.2% | Residual rate (pH7.4, 1 hr): 41.7% | Production rate of Alvocidib (pH7.4, 2 hr): 58.2% | Residual rate (pH7.4, 2 hr): 38.4%

CN1CC[C@H](c2c(OC(=O)N(CCCC(F)(F)F)CC3CCCCN3)cc(O)c3c(=O)cc(-c4ccccc4Cl)oc23)[C@H](O)C1 (stereo partly drawn) [Example 14, 2-(2-chlorophenyl)-5-hydroxy-8-[(3S,4R)-3-hydroxy-1-methylpiperidin-4-yl]-4-oxo-4H-1-benzopyran-7-yl [(piperidin-2-yl)methyl](4,4,4-trifluorobutyl)carbamate]
Alvocidib amount produced, after subtracting the 28.2% Alvocidib of the sample (Table 36-2) (pH5.0, 0 hr): 1.0% | Production rate of Alvocidib (pH5.0, 0 hr): 29.2% | Residual rate (pH5.0, 0 hr): 56.6% | Stability in buffer solution at pH 5: stable | Alvocidib amount produced, after subtracting the 28.2% Alvocidib of the sample (Table 36-2) (pH5.0, 0.5 hr): 1.7% | Production rate of Alvocidib (pH5.0, 0.5 hr): 29.9% | Residual rate (pH5.0, 0.5 hr): 54.6% | Alvocidib amount produced, after subtracting the 28.2% Alvocidib of the sample (Table 36-2) (pH5.0, 1 hr): 3.5% | Production rate of Alvocidib (pH5.0, 1 hr): 31.7% | Residual rate (pH5.0, 1 hr): 53.0% | Alvocidib amount produced, after subtracting the 28.2% Alvocidib of the sample (Table 36-2) (pH5.0, 2 hr): 4.9% | Production rate of Alvocidib (pH5.0, 2 hr): 33.1% | Residual rate (pH5.0, 2 hr): 51.0% | Alvocidib amount produced, after subtracting the 28.2% Alvocidib of the sample (Table 36-2) (pH5.0, 3 hr): 5.2% | Production rate of Alvocidib (pH5.0, 3 hr): 33.4% | Residual rate (pH5.0, 3 hr): 52.7% | Alvocidib amount produced, after subtracting the 28.2% Alvocidib of the sample (Table 36-2) (pH5.5, 0 hr): 0.8% | Production rate of Alvocidib (pH5.5, 0 hr): 29.0% | Residual rate (pH5.5, 0 hr): 57.5% | Alvocidib amount produced, after subtracting the 28.2% Alvocidib of the sample (Table 36-2) (pH5.5, 0.5 hr): 2.7% | Production rate of Alvocidib (pH5.5, 0.5 hr): 30.9% | Residual rate (pH5.5, 0.5 hr): 55.8% | Alvocidib amount produced, after subtracting the 28.2% Alvocidib of the sample (Table 36-2) (pH5.5, 1 hr): 4.5% | Production rate of Alvocidib (pH5.5, 1 hr): 32.7% | Residual rate (pH5.5, 1 hr): 54.3% | Alvocidib amount produced, after subtracting the 28.2% Alvocidib of the sample (Table 36-2) (pH5.5, 2 hr): 7.2% | Production rate of Alvocidib (pH5.5, 2 hr): 35.4% | Residual rate (pH5.5, 2 hr): 48.6% | Alvocidib amount produced, after subtracting the 28.2% Alvocidib of the sample (Table 36-2) (pH5.5, 3 hr): 9.7% | Production rate of Alvocidib (pH5.5, 3 hr): 37.9% | Residual rate (pH5.5, 3 hr): 47.7% | Alvocidib amount produced, after subtracting the 28.2% Alvocidib of the sample (Table 36-2) (pH6.0, 0 hr): 0.9% | Production rate of Alvocidib (pH6.0, 0 hr): 29.1% | Residual rate (pH6.0, 0 hr): 55.8% | Alvocidib amount produced, after subtracting the 28.2% Alvocidib of the sample (Table 36-2) (pH6.0, 0.5 hr): 6.2% | Production rate of Alvocidib (pH6.0, 0.5 hr): 34.4% | Residual rate (pH6.0, 0.5 hr): 49.7% | Alvocidib amount produced, after subtracting the 28.2% Alvocidib of the sample (Table 36-2) (pH6.0, 1 hr): 10.9% | Production rate of Alvocidib (pH6.0, 1 hr): 39.1% | Residual rate (pH6.0, 1 hr): 44.8% | Alvocidib amount produced, after subtracting the 28.2% Alvocidib of the sample (Table 36-2) (pH6.0, 2 hr): 22.0% | Production rate of Alvocidib (pH6.0, 2 hr): 50.2% | Residual rate (pH6.0, 2 hr): 31.8% | Alvocidib amount produced, after subtracting the 28.2% Alvocidib of the sample (Table 36-2) (pH6.0, 3 hr): 27.7% | Production rate of Alvocidib (pH6.0, 3 hr): 55.9% | Residual rate (pH6.0, 3 hr): 24.5% | Alvocidib amount produced, after subtracting the 28.2% Alvocidib of the sample (Table 36-2) (pH6.5, 0 hr): 3.4% | Production rate of Alvocidib (pH6.5, 0 hr): 31.6% | Residual rate (pH6.5, 0 hr): 52.2% | Alvocidib amount produced, after subtracting the 28.2% Alvocidib of the sample (Table 36-2) (pH6.5, 0.5 hr): 17.6% | Production rate of Alvocidib (pH6.5, 0.5 hr): 45.8% | Residual rate (pH6.5, 0.5 hr): 35.2% | Alvocidib amount produced, after subtracting the 28.2% Alvocidib of the sample (Table 36-2) (pH6.5, 1 hr): 28.9% | Production rate of Alvocidib (pH6.5, 1 hr): 57.1% | Residual rate (pH6.5, 1 hr): 22.9% | Alvocidib amount produced, after subtracting the 28.2% Alvocidib of the sample (Table 36-2) (pH6.5, 2 hr): 34.8% | Production rate of Alvocidib (pH6.5, 2 hr): 63.0% | Residual rate (pH6.5, 2 hr): 14.0% | Alvocidib amount produced, after subtracting the 28.2% Alvocidib of the sample (Table 36-2) (pH6.5, 3 hr): 44.4% | Production rate of Alvocidib (pH6.5, 3 hr): 72.6% | Residual rate (pH6.5, 3 hr): 5.1% | Alvocidib amount produced, after subtracting the 28.2% Alvocidib of the sample (Table 36-2) (pH7.0, 0 hr): 2.5% | Production rate of Alvocidib (pH7.0, 0 hr): 30.7% | Residual rate (pH7.0, 0 hr): 53.4% | Alvocidib amount produced, after subtracting the 28.2% Alvocidib of the sample (Table 36-2) (pH7.0, 0.5 hr): 33.8% | Production rate of Alvocidib (pH7.0, 0.5 hr): 62.0% | Residual rate (pH7.0, 0.5 hr): 16.3% | Alvocidib amount produced, after subtracting the 28.2% Alvocidib of the sample (Table 36-2) (pH7.0, 1 hr): 39.8% | Production rate of Alvocidib (pH7.0, 1 hr): 68.0% | Residual rate (pH7.0, 1 hr): 8.4% | Alvocidib amount produced, after subtracting the 28.2% Alvocidib of the sample (Table 36-2) (pH7.0, 2 hr): 47.3% | Production rate of Alvocidib (pH7.0, 2 hr): 75.5% | Residual rate (pH7.0, 2 hr): 1.1% | Alvocidib amount produced, after subtracting the 28.2% Alvocidib of the sample (Table 36-2) (pH7.0, 3 hr): 47.0% | Production rate of Alvocidib (pH7.0, 3 hr): 75.2% | Residual rate (pH7.0, 3 hr): 0.4% | Alvocidib amount produced, after subtracting the 28.2% Alvocidib of the sample (Table 36-2) (pH7.4, 0 hr): 7.7% | Production rate of Alvocidib (pH7.4, 0 hr): 35.9% | Residual rate (pH7.4, 0 hr): 45.8% | Conversion to Alvocidib at pH 7.4: rapidly converted to Alvocidib | Alvocidib amount produced, after subtracting the 28.2% Alvocidib of the sample (Table 36-2) (pH7.4, 0.5 hr): 43.4% | Production rate of Alvocidib (pH7.4, 0.5 hr): 71.6% | Residual rate (pH7.4, 0.5 hr): 4.6% | Alvocidib amount produced, after subtracting the 28.2% Alvocidib of the sample (Table 36-2) (pH7.4, 1 hr): 48.4% | Production rate of Alvocidib (pH7.4, 1 hr): 76.6% | Residual rate (pH7.4, 1 hr): 0.7% | Alvocidib amount produced, after subtracting the 28.2% Alvocidib of the sample (Table 36-2) (pH7.4, 2 hr): 47.4% | Production rate of Alvocidib (pH7.4, 2 hr): 75.6% | Residual rate (pH7.4, 2 hr): 0.2% | Alvocidib amount produced, after subtracting the 28.2% Alvocidib of the sample (Table 36-2) (pH7.4, 3 hr): 47.5% | Production rate of Alvocidib (pH7.4, 3 hr): 75.7% | Residual rate (pH7.4, 3 hr): 0.3%
